≈ marks a conversion by molar mass, not a printed value.
What was measured:
[1] = Serum concentration in rabbits after intravenous administration (Example 20); assay type: in vivo; details: rabbit
Method: Number of rabbits: 1 rabbit for each group
Dose: 20 mg per kg body weight
Route: Intravenously, administered once
Samples: Samples were drawn from each rabbit twice.
(§1) Serum or plasma was diluted with one part of acetonitrile, left for 15 min at 4° C., and centrifugated for 3 min at 10,000 g. An aliquot of the supernatant was chromatographed at 37° C. by HPLC over Spherisorb ODS-2 (5 μm, 120×4.5 mm, Phase Separation LTD, UK) using acetonitrile aqueous acetic acid, 2%, (1:1) as an eluent, flow rate 1.5 ml/min, and UV detection (370 nm and 254 nm).

[2] = tested on: L. major; assay: In vivo growth of L. major in BALB/c mice (Example 8); design: key to amastigotes findings on the impression smear, Spleen / amastigotes findings on the impression smear, Liver: −: no parasite amastigotes detected in 5 fields of microscopical vision; +: parasite amastigotes from 5 fields of microscopical vision < 100; ++: parasite amastigotes from 5 fields of microscopical vision = 100-500; +++: parasite amastigotes from 5 fields of microscopical vision = 500-1000; details: for parasitic load of the footpad, 3H-thymidine uptake (mean) / parasitic load of the liver, 3H-thymidine uptake (mean): 42 days
Method: Mice. BALB/c female mice aged eight weeks old were used throughout. Parasite. The maintenance, cultivation, and isolation of the promastigote-stage of the parasite L. major (WHO reference vaccine strain) have been described in detail in Example 4. […] The lesions that developed in the footpad were measured with a dial-calliper and expressed as footpad thickness increase (in mm). The footpad thickness of mice was measured before infection and every 3 days after 7 days of infection. From 7 days of infection, mice received licochalcone A injections i.p. or intralesionally once a day. After 42 days of licochalcone A injection, some of the mice were killed and the footpads, spleens and livers removed. The parasite loads in the footpads and livers were estimated by a modification of the method described by Liew et al. 1990. […] Incubation was carried out at 28° C. for 3 days and then pulsed with 1 μCi of ^3H-thymidine. Cultures were harvested 18 h later on filter paper by a cell harvester (Skatron, Lierbyen, Norway), extensively washed with distilled water and counted in a scintillation counter (Minaxi Ti-Carb 4000, United Technologies, Packard, USA). The results were expressed as cpm. The footpads, spleens and livers impression was also estimated. Drugs. One mg of licochalcone A was dissolved in 20 μl of 99% (v/v) ethanol, and then 980 μl of medium 199 was added an the resulting mixture was stored at −20° C. before use.

[3] = tested on: Non-haemolytic streptacocci; assay: MIC, macrodilution (Example 17); assay type: cell-based, Non-haemolytic streptococci; details: 1 strain
[4] = tested on: Helicobacter pylori; assay: MIC on Helicobacter pylori, microaerophilic (Example 18); assay type: cell-based
Method: Bacteria. 16 recent clinical isolates of Helicobacter pylori from patients with duodenal ulcer or chronic gastritis. […] Staphylococcus aureus ATCC 25923 was used as control strain. The Helicobacter pylori strains were subcultured on chocolate agar plates with cysteine in a microaerophilic atmosphere at 37° C. for 72 hours and kept frozen at −80° C. until assayed. MIC determinations. Macrodilution rows were made with Helicomedia with 2 ml in all vials. […] All dilution rows were inoculated to give a final concentration of 10^5 CFU/ml. The MIC rows were incubated under microaerophilic conditions for […]. […] The control strain Staphylococcus aureus was incubated both aerobically and microaerophilically at 37° C. for 24 hours. All plates were read by the Karber method.

[5] = tested on: BCG; assay type: cell-based; details: n = 3
[6] = tested on: L. gormanii; assay: microbe, parasite or virus in culture; assay type: cell-based; details: Fluoribacter gormanii
[7] = tested on: L. major WHO pentostam resistant strain promastigotes; assay: Pentostam resistant L. major promastigotes, 3H-thymidine uptake (Example 10); details: 5 μg/ml
[8] = tested on: Gram positive cocci; assay: MIC, macrodilution (Example 17), text summary; assay type: cell-based
[9] = Absorption study in rats, oral, serum concentration (Example 20); assay type: in vivo
Method: The absorption pattern and pharmaco-kinetics of licochalcone A in rats given by oral route were determined compared with pharmacokinetics of licochalcone A in rats given intravenously.
Number of rats: 4 for each group […]
Route: Oral, adminitered once.
Sample: 2 ml of blood was drawn 4 times from each rat.
as §1

[10] = tested on: M. intracellular; assay: Radiometric MIC (Example 19); assay type: cell-based; details: n=9
[11] = tested on: L. major promastigotes; assay: Electron microscopy of L. major promastigotes (Example 11); assay type: cell-based, Leishmania major; details: for diameter of mitochondria, Maximum (mean) / diameter of mitochondria, Minimum (mean): 24 hours
[12] = Helicobacter pylori, 16 clinical isolates

## C=CC(C)(C)c1cc(/C=C/C(=O)c2ccc(O)cc2)c(OC)cc1O [Licochalcone A, licochalcone A]
[1]; 24 hours after intravenous 20 mg per kg, detection limit
  concentration at 24 h: < 0.05 µg/mL
[1]; one hour following intravenous 20 mg per kg
  concentration at 1 h: 0.35 µg/mL
[2]; 20 μg intralesional
  amastigotes findings on the impression smear, Footpad: + (parasite amastigotes from 5 fields of microscopical vision < 100)
  amastigotes findings on the impression smear, Liver: + (parasite amastigotes from 5 fields of microscopical vision < 100)
  amastigotes findings on the impression smear, Spleen: + (parasite amastigotes from 5 fields of microscopical vision < 100)
[2]; 20 μg intralesional once a day
  parasitic load of the footpad, 3H-thymidine uptake (mean): 243.5 ×10^3 cpm
  parasitic load of the liver, 3H-thymidine uptake (mean): 10.8 ×10^3 cpm
[2]; 50 μg i.p.
  amastigotes findings on the impression smear, Footpad: + (parasite amastigotes from 5 fields of microscopical vision < 100)
  amastigotes findings on the impression smear, Liver: −
  amastigotes findings on the impression smear, Spleen: −
[2]; 50 μg i.p. once a day
  parasitic load of the footpad, 3H-thymidine uptake (mean): 58.0 ×10^3 cpm
  parasitic load of the liver, 3H-thymidine uptake (mean): 11.7 ×10^3 cpm
[2]; 50 μg intralesional
  amastigotes findings on the impression smear, Footpad: + (parasite amastigotes from 5 fields of microscopical vision < 100)
  amastigotes findings on the impression smear, Liver: + (parasite amastigotes from 5 fields of microscopical vision < 100)
  amastigotes findings on the impression smear, Spleen: + (parasite amastigotes from 5 fields of microscopical vision < 100)
[2]; 50 μg intralesional once a day
  parasitic load of the footpad, 3H-thymidine uptake (mean): 282.6 ×10^3 cpm
  parasitic load of the liver, 3H-thymidine uptake (mean): 20.8 ×10^3 cpm
[2]; 100 μg i.p.
  amastigotes findings on the impression smear, Footpad: + (parasite amastigotes from 5 fields of microscopical vision < 100)
  amastigotes findings on the impression smear, Liver: −
  amastigotes findings on the impression smear, Spleen: −
[2]; 100 μg i.p. once a day
  parasitic load of the footpad, 3H-thymidine uptake (mean): 89.0 ×10^3 cpm
  parasitic load of the liver, 3H-thymidine uptake (mean): 12.8 ×10^3 cpm
[3]
  MIC: 4 mg/L (≈ 11.8 µM)
[4]; 16 clinical isolates
  MIC Range: 16 to 125 mg/L
[4]; [12]
  MIC50: 62 mg/L (≈ 183 µM)
  MIC90: 125 mg/L (≈ 369 µM)
[4]; Helicobacter pylori, read-out: MIC of the only strain with a low MIC
  MIC: 16 mg/L
[5]
  meanMIC: meanMIC = 8.6 μg/ml
  meanMIC (second line): meanMIC = 40 μg/ml (n = 3)
  rangeMIC: rangeMIC = 5-10 /ml (n = 3)
[6]
  MIC: 500 mg/L (≈ 1480 µM)
[7]
  growth of pentostam resistant parasites: completely inhibited the growth
[8]
  MIC: 4000 to 8000 mg/L (≈ 11800 to 23600 µM)
[9]; 4 hours after oral administration, 1000 mg per kg as printed
  concentration in serum: 0.16 µg/mL
[9]; rat, serum, oral, 1000 mg per kg, after 24 hours, detection limit of the assay
  concentration at 24 h: < 0.05 µg/mL
[9]; rat, serum, po, 1000 mg per kg, 4 hours after oral administration, 1000 mg per kg as printed
  concentration at 4 h: 0.14 µg/mL
[10]
  meanMIC: 50.0 µg/mL
  rangeMIC: 20 to 80 µg/mL
[11]; 1 μg/ml
  morphological changes of promastigotes: no morphological changes
  diameter of mitochondria, Maximum (mean): 203 nm
  diameter of mitochondria, Minimum (mean): 104 nm
[11]; 5 μg/ml
  diameter of mitochondria, Maximum (mean): 548 nm
  diameter of mitochondria, Minimum (mean): 165 nm
[11]; 5 μg/ml, control 50%
  percentage of L. major showing cytoplasmic granules: 70%
[11]; 10 μg/ml
  diameter of mitochondria, Maximum (mean): 1043 nm
  diameter of mitochondria, Minimum (mean): 294 nm

Source: patent publication US6603046B1, “Bis-aromatic a,β-unsaturated ketones” (Lica Pharmaceuticals A/S, priority 1992, dated 2003)
